# Measurements: patent US5624917A, “Method of inhibiting squalene synthetase” (Takeda Chemical Industries, Ltd., priority 1991, dated 1997)
# Legend:
# cholesterol biosynthesis = test: Cholesterol biosynthesis inhibitory activity: cholesterol synthesis from [2-14C] acetic acid in rat liver slices; type: cell-based; details: for effect on cholesterol synthesis from [2-14C] acetic acid (in words): 20 μM; for activity at 20 µM: 37° C., 2 hours, No addition = 100 ± 0
# Procedure: (§1) Squalene synthetase inhibitory activity and cholesterol biosynthesis inhibitory activity of the compounds used in the present invention were determined by the following method.
# Determination of cholesterol biosynthesis Inhibitory activity
# The liver was excised from Sprague-Dawley rat (6 weeks old, male) under full feeding and sliced into 500 μm in thickness. The slices of liver (150-200 mg) and KHB buffer solution (1 ml) containing 0.5 μCi [2-^14 C] acetic acid and various concentrations of test compounds were incubated at 37° C. for 2 hours. Cholesterol was extracted from the reaction mixture. The amount of cholesterol synthesized from the labeled acetic acid was measured, and the inhibitory ratio was calculated in comparison with the synthesized amount in the case of no addition of the test compounds.
# The effect of Compound No. 22 (Example 39 described in Japanese Patent Application No. 3-151484) (added in 20 μM), 67, 74 and 75 on cholesterol synthesis from [2-^14 C] acetic acid in assay using liver slices of rats was observed.
# squalene synthetase [1] = target: T1, squalene synthetase (Homo sapiens, UniProt P37268); test: Squalene synthetase inhibitory activity, human enzyme (HepG2 microsome fraction); type: biochemical; details: human hepatoma HepG2 microsome fraction; 5 μM [1-3H]farnesylpyrophosphoric acid, pH 7.4, 37° C., 45 minutes; read-out: IC50, squalene synthetase inhibitory activity, Human enzyme
# T1 construct: From the resulting sonicate, microsome fraction was obtained according to the same manner as that described in Experiment 1; endogenous in cells; host or cells: HepG2 human hepatoma cells (microsome fraction)
# T1 sequence (P37268 1-417): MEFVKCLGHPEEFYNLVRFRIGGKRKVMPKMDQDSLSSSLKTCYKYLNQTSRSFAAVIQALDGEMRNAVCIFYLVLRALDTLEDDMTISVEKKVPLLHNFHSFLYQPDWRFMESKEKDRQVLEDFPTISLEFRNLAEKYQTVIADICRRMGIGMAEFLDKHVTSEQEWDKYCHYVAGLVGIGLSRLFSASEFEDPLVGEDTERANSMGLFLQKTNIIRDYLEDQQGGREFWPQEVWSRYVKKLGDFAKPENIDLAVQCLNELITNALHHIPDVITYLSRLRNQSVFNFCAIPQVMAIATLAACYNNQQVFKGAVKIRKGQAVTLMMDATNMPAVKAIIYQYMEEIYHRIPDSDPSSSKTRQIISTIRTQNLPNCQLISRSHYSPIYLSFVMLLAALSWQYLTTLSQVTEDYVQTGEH
# Procedure: as §1
# (§2) Determination of squalene synthetase inhibitory activity
# (§3) The squalene synthetase inhibitory activity was determined as follows by using the enzyme solutions shown in Experiments 1 and 2 below.
# (§4) Each enzyme solution (Protein: 0.8 μg) prepared in Experiments 1 and 2 was added to a solution (total amount: 50 μl) containing 5 μM[1-^3 H]farnesylpyrophosphoric acid (Specific activity 25 μCi/μmole), 1 mM NADPH, 5 mM MgCl2, 6 mM glutathione, 100 mM potassium phosphate buffer (pH 7.4) and a drug to be tested (which was added as a solution thereof in water or DMSO). The mixture was allowed to react at 37° C. for 45 minutes. A mixture (150 μl) of chloroform and methanol (1:2) was added to stop the reaction. Then, chloroform (50 μl) and 3N sodium hydroxide solution (50 μl) were added. The chloroform layer (under layer, 50 μl) containing the reaction products in which the major component was squalene was mixed with toluene liquid scintillator (3 ml). The radioactivity was measured with a liquid scintillation counter.
# (§5) The squalene synthetase inhibitory activity is indicated by the concentration (IC50, molarity(M)) which inhibits the radioactivity incorporated into the chloroform layer by 50%.
# Preparation of human enzyme
# Cultivation was carried out on Dulbecco modified Eagle medium containing 10% bovine fetal serum in the presence of 5% CO2 at 37° C. The human hepatoma cells HepG2 (ca. 1×10^9 cells) were suspended in an ice-cooled buffer solution (10 ml) [100 mM potassium phosphate (pH 7.4), 30 mM nicotinamide, 2.5 mM MgCl2 ], and the cells were crushed by ultrasonication (30 seconds, twice). From the resulting sonicate, microsome fraction was obtained according to the same manner as that described in Experiment 1. This microsome fraction was suspended in an ice-cooled 100 mM potassium phosphate buffer solution (pH 7.4) so that the protein concentration became about 4 mg/ml, and this suspension was used as the enzyme liquid.
# squalene synthetase [2] = target: T2, squalene synthetase (Rattus norvegicus, UniProt Q02769); test: Squalene synthetase inhibitory activity, rat enzyme (rat liver microsome fraction); type: biochemical; details: 5 μM [1-3H]farnesylpyrophosphoric acid, pH 7.4, 37° C., 45 minutes, read-out: IC50, squalene synthetase inhibitory activity, Rat enzyme
# T2 construct: from tissue; host or cells: liver of male SD rats (microsome fraction)
# T2 sequence (Q02769 1-416): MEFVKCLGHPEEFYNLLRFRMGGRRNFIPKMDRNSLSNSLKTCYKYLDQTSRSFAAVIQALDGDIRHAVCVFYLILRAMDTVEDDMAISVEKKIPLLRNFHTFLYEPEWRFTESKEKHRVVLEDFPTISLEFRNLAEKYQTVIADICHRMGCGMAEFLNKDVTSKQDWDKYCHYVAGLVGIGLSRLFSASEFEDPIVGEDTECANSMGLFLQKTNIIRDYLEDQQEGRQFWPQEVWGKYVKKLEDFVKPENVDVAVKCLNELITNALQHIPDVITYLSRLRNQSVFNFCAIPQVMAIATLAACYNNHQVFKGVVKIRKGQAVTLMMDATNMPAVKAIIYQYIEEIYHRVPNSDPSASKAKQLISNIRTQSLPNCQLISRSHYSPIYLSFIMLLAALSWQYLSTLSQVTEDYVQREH
# Procedure: as §1, §2, §3, §4, §5
# Preparation of rat enzyme
# SD-Male rats (6 weeks old) were bled to death followed by removal of liver. The liver (ca. 10 g) was washed with ice-cooled physiological saline, homogenized in an ice-cooled buffer solution (15 ml) [100 mM potassium phosphate (pH 7.4), 15 mM nicotinamide, 2 mM MgCl2 ] and centrifuged at 10,000×g for 20 minutes (4° C.). The resulting supernatant was further centrifuged at 105,000×g for 90 minutes (4° C.). Then, the deposit was suspended in an ice-cooled 100 mM potassium phosphate buffer solution (pH 7.4) and centrifuged at 105,000×g for 90 minutes (4° C.) again. The deposit (microsome fraction) thus obtained was suspended in an ice-cooled 100 mM potassium phosphate buffer solution (pH 7.4) so that the protein concentration became about 40 mg/ml (measured with BCA Protein Assay Kit (Pias)), and the suspension was used as the enzyme solution.
IC50 (squalene synthetase [1]) [nM],IC50 (squalene synthetase [2]) [nM],Compound,effect on cholesterol synthesis from [2-14C] acetic acid (in words) (cholesterol biosynthesis),activity at 20 µM (cholesterol biosynthesis) [%]
–,–,O=P(O)(O)C(NCCCCCCSc1ccccc1)P(=O)(O)O [compound 22],significant inhibition of cholesterol biosynthesis,52.9 ± 10
9.3,8.7,COc1ccc(CSCCCCCCNC(P(=O)(O)O)P(=O)(O)O)cc1 [compound 67],significant inhibition of cholesterol biosynthesis,43.4 ± 5
–,–,O=P(O)(O)C(NCCCCCCSc1nccs1)P(=O)(O)O [compound 74],significant inhibition of cholesterol biosynthesis,35.8 ± 0.8
–,–,Cc1nnc(SCCCCCCNC(P(=O)(O)O)P(=O)(O)O)s1 [compound 75],significant inhibition of cholesterol biosynthesis,50 ± 7.9
110,62,"CC(C)=CCC/C(C)=C/CC/C(C)=C/CC(P(=O)(O)O)P(=O)(O)O [compound 106, trisodium (E,E)-farnesylmethylenebisphosphonate]",–,–
8200,3300,"(E,E)-farnesylaminomethylenebisphosphonic acid diethyl ester disodium salt [Compound No. 112]",–,–
